Assay results as given in publication PMC9072415, “Activation of cannabinoid receptors in breast cancer cells improves osteoblast viability in cancer-bone interaction model while reducing breast cancer cell survival and migration” (Scientific Reports, 2022).
“Also recorded” adds a separate entry of the source.

Columns and labels:
Format in all cases: cell-based
[1] = tested on: UMR-106 cells; assay: UMR-106 viability (MTT) with conditioned media from agonist-pretreated MDA-MB-231 cells; conditions: MDA-MB-231 pretreated 48 h; CM collected after 48 h in serum-free DMEM
Procedure: To collect CM from MDA-MB-231 cells, cells were seeded into a 6-well plate at a density of 5.0 × 10^5 cells/well and grown for 24 h until reaching 80–90% confluence. In the pretreatment experiment, cells were treated with either ACEA, GW405833 or a combination of both for 48 h. After that, cells were washed with phosphate buffered saline (PBS) and incubated in serum-free DMEM. Forty-eight hours later, CM from these cells was harvested, filtered through a syringe filter (pore size of 0.2 µm; Sartorius Stedim Biotech GmbH, Göttingen, Germany) to remove cells and debris, and stored at − 80 °C for later experiments (Fig. 1a).
Cell viability was assessed using the 3-(4,5-dimethylthiazol-2-yl)-2,5-diphenyltetrazolium bromide (MTT) colorimetric assay. The assay was performed according to a previously described method. In brief, cells were seeded into a 96-well plate at a density of 1.0 × 10^4 cells/well and allowed to attach overnight. Thereafter, they were treated with ACEA, GW405833 or the combination of both for the indicated times. […] The optical density at 595 nm was measured using a microplate reader (Multiskan EX) (Thermo Fisher Scientific, MA, USA). The percentage of cell viability was calculated based on the absorbance ratio between cells treated with the compounds and control multiplied by 100 (percent cell viability normalized to control).

[2] = tested on: cellular ROS in MDA-MB-231 cells; assay: DCFDA cellular ROS detection assay; conditions: 30 µM ACEA, 15 µM GW405833 or combination, 6 h
Procedure: Cellular reactive oxygen species (ROS) were monitored using the 2´,7´-dichlorofluorescin diacetate (DCFDA) Cellular ROS Detection Assay Kit (ab113851) (Abcam, Cambridge, UK) according to the manufacturer's instruction. In brief, MDA-MB-231 cells were seeded into a 96-black well plates with clear bottom at a density of 2.5 × 10^4 cells/well and grown overnight. Then, the cells were treated with ACEA, GW405833 or the combination of both for 6 h. At the end of the treatment, fluorescence signal of DCF was measured by using a multimode microplate reader (Spark 10 M) (Tecan Austria GmbH, Männedorf, Austria) with the excitation and emission wavelengths of 485 and 535 nm, respectively.

[3] = tested on: p-NF-κB p65 in MDA-MB-231 cells; assay: Western blot of p-NF-κB p65 expression; conditions: individual treatments, 48 h
Procedure: Twenty micrograms of protein samples were resolved by sodium dodecyl sulfate polyacrylamide gel electrophoresis (SDS-PAGE) (Invitrogen) gel before being transferred to nitrocellulose blotting membrane (GE Healthcare, Texas, USA).The membranes were then blocked with 5% (w/v) bovine serum albumin (BSA) (Capricorn Scientific, Hessen, Germany) for 2 h at room temperature, followed by the incubation at 4 °C overnight with primary antibodies. After washing, the membranes were incubated with the appropriate horseradish peroxidase (HRP)-conjugated secondary antibodies. Proteins on the immunoblots were visualized by enhanced chemiluminescence (ECL) (Millipore, MA, USA) and exposed to X-ray film (GE Healthcare). Protein band intensity was quantified using ImageJ software (National Institutes of Health, MD, USA). To relatively quantify the target protein expression, the intensity of target protein band was normalized to β-actin of each lane.

[4] = tested on: MDA-MB-231 cells; assay: Wound healing cell migration assay; conditions: for cell migration (wound closure): 15 µM
Procedure: Cell migration was measured by wound healing assay modified from Lertsuwan et al.,[27]. Briefly, MDA-MB-231 cells were seeded into a 24-well plate at a density of 4.0 × 10^5 cells/well and allowed to attach overnight. Thereafter, wound was created with a sterile 200-µL pipette tip, then the cells were treated with ACEA, GW405833 or the combination of both. Series of images of the scratched wound were taken under a phase contrast inverted microscope (model AE31) (Motic, China) from 0 to 36 h. The closure of the wound representing migration ability of the cells was measured by using ImageJ software (National Institutes of Health). Cell migration was calculated as the percentage of wound closure area compared to the initial scratched area.

[5] = tested on: UMR-106 cells; assay: MTT cell viability assay, UMR-106 cells; conditions: for IC50: MTT; for effect of low concentrations on osteoblast growth: UMR-106 osteoblasts
Procedure: (§1) Osteoblast-like UMR-106 cells (RRID CVCL_3617; ATCC CRL-1661) and triple-negative breast cancer cells, MDA-MB-231 (RRID CVCL_0062; ATCC HTB-26) were obtained from American Type Culture Collection (ATCC, VA, USA). Cells were cultured in Dulbecco’s modified Eagle’s medium (DMEM) (Sigma-Aldrich, MO, USA) containing 10% (v/v) fetal bovine serum (FBS) and 1% penicillin–streptomycin (Gibco, Texas, USA) and maintained under 5% CO2 at 37 °C, and sub-cultured according to the manufacturer’s instruction.
(§2) Cell viability was assessed using the 3-(4,5-dimethylthiazol-2-yl)-2,5-diphenyltetrazolium bromide (MTT) colorimetric assay. The assay was performed according to a previously described method. In brief, cells were seeded into a 96-well plate at a density of 1.0 × 10^4 cells/well and allowed to attach overnight. Thereafter, they were treated with ACEA, GW405833 or the combination of both for the indicated times. MTT (Invitrogen, CA, USA) solution was added to the final concentration of 0.5 mg/mL in 100 µL in serum-free DMEM and incubated at 37 °C for 4 h, then stop solution was added and thoroughly mixed. The optical density at 595 nm was measured using a microplate reader (Multiskan EX) (Thermo Fisher Scientific, MA, USA). The percentage of cell viability was calculated based on the absorbance ratio between cells treated with the compounds and control multiplied by 100 (percent cell viability normalized to control).
(§3) All results are expressed as means ± standard errors (SEM). Unless otherwise specified, statistical analysis for multiple comparisons was performed using one-way analysis of variance (ANOVA). The difference between pairs of means was analyzed by Tukey post-test. A p-value < 0.05 was considered statistically significant. Calculation of the inhibitory concentration at 50% (IC50) and all statistical analyses were performed using GraphPad Prism 9 (GraphPad Software Inc., USA).

[6] = tested on: MDA-MB-231 cells; assay: MTT cell viability assay, MDA-MB-231 cells; conditions: for IC50: MTT
Procedure: as §1, §2, §3

SMILES	effect of pretreatment of MDA-MB-231 cells on CM-mediated suppression of UMR-106 cell viability [1]	cellular ROS levels compared to control group [2]	level of p-NF-κB p65 [3]	percentage of wound closure (cell migration) ([4]; 20 µM, 24 h)	percentage of wound closure (cell migration) ([4]; 30 µM, 24 h)	percentage of wound closure (cell migration) ([4]; 30 µM, 36 h)	IC50 ([5]; 24 h) [µM]	IC50 ([5]; 48 h) [µM]	IC50 ([5]; 72 h) [µM]	effect of low concentrations on osteoblast growth [5]	Fold differences between IC50 values of UMR-106 / MDA-MB-231 ([6]; 24 h) [fold]	IC50 ([6]; 24 h) [µM]	Fold differences between IC50 values of UMR-106 / MDA-MB-231 ([6]; 48 h) [fold]	IC50 ([6]; 48 h) [µM]	Fold differences between IC50 values of UMR-106 / MDA-MB-231 ([6]; 72 h) [fold]	IC50 ([6]; 72 h) [µM]	Fold differences between IC50 values of UMR-106 / MDA-MB-231 ([6]; Average of 24, 48 and 72 h) [fold]	cell migration (wound closure) ([4]; 24 h)	cell migration (wound closure) ([4]; 36 h)
CCCCC/C=C\C/C=C\C/C=C\C/C=C\CCCC(=O)NCCCl [ACEA]	did not alter CM-mediated osteoblast suppression	remained unchanged	remained unchanged	significantly decreased	significantly decreased; also recorded: significant reduction	significantly decreased	104	62	38	growth stimulatory effect	1.54	67.8	1.63	38	1.16	32.8	1.44	–	–
COc1ccc2c(c1)c(CCN1CCOCC1)c(C)n2C(=O)c1cccc(Cl)c1Cl [GW405833]	significant recovery	remained unchanged	remained unchanged	–	–	–	168	119	79.9	growth stimulatory effect	6.83	24.6	7.18	16.6	6.27	12.7	6.76	significant reduction	significant cell migration suppression
